Experimental data from patent publication US8735443B2, “Method of treating diabetes-related vascular complications” (Kuwait University, priority 2008, dated 2014).

How the values were obtained:
NF-κB = NF-κB expression by western blotting, HEK-293; assay type: cell-based; details: HEK-293 (parental cells) exposed to α-lipoic acid
From the text: Alpha-lipoic acid increased HEK-499 cells, which were engineered to be resistant to chemotherapies and radiotherapies by depleting Raf Kinase inhibitory protein resistance to lethal doses of cisplatin, a chemical used in cancer therapy.

[1] = test system: control fibroblasts (CFs); assay: Cell viability after hydrogen peroxide (Cell Counting Kit-8), control fibroblasts; assay type: cell-based, rat; details: lipoic acid 500 μM, Nrf2-dependent
From the text: To determine the effect of α-lipoic acid on isolated cells from normal and diabetic rats, primary rat fibroblasts were derived from dorsal skin biopsies performed on four diabetic Coto Kakizaki rats (DFs) and four age-matched (12-14 months) and sex-matched (female) Wistar control rats (CFs). After sterilization in povidine solution, the rat skin was washed in sterile water and rinsed in 70% ethanol in phosphate-buffered saline (PBS). The epidermis and dermis were separated following overnight incubation in 0.25% Trypsin/EDTA at 4° C. Samples were washed, diced and digested for thirty minutes at 37° C. in collagenase type I (250 U/ml) dissolved in Dulbecco's modified Eagle medium (DMEM; Invitrogen) containing penicillin (100 U/ml), 2 mM L-glutamine and 26 mM HEPES. After collagenase treatment, the cells were dislodged, centrifuged and resuspended in medium supplemented with 10% fetal bovine serum. The cells were grown under standard conditions, and the medium was changed every three to four days. Control and diabetic fibroblasts were grown under normo-glycemic conditions (5.5 mM glucose) and used in experiments at passage 3 to 5.
Fibroblasts were seeded at 1×10^4 cells/well on a 96-well plate. […] Quantification of cell viability was assessed using a Cell Counting Kit-8 (Dojindo, Kumamoto, Japan). […]

aortic vessels = assay: Dihydroethidium / ethidium bromide fluorescence of aortic sections; assay type: in vivo, rat; details: LA-treated diabetic rats
Experimental: Dihydroethidium (DHE), an oxidative fluorescent dye, was used to localize superoxide production in situ. DHE is oxidized on reaction with superoxide to ethidium bromide, which binds to DNA in the nucleus and fluoresces. Arteries were embedded in OCT medium, frozen and cryosectioned. Vascular sections were incubated with DHE at a concentration (10^−6 mol/l) at 37° C. for 30 minutes. DHE images from serial sections were obtained using a Zeiss Axioplan 2000 fluorescence microscope.

IL-6 = assay: Aortic mRNA expression by QRT-PCR, IL-6; assay type: in vivo, rat; details: GK rats, LA therapy
Experimental: An expression of a number of inflammatory markers, including IL-6 and ICAM-1, were measured in control, diabetic and LA-treated diabetic vessels. The results confirmed marked elevation in the vascular expression of both […] and ICAM-1 during diabetes, as shown in FIGS. 11A and 11B. […] Aortic expression of IL-6 is shown in FIG. 11A and aortic expression of intracellular adhesion molecule (ICAM-1) is shown in FIG. 11B. Both were determined using QRT-PCR based techniques.

cultured arteries = assay: Cultured arteries of non-diabetic control animals exposed to TNF-α; parameters: species or system rat; details: pretreatment with LA
nox-1 = assay: Aortic mRNA expression by real-time PCR, nox-1; assay type: in vivo, rat; details: aorta of LA-treated GK rats
Experimental: Further, with regard to quantitative real-time polymerase chain reactions (PCR) in the study, total RNA from the arterial samples was isolated using TRIZOL® reagent, and RNA integrity was verified by agarose gel electrophoresis and quantified by spectrophotometry. Reverse transcription reaction of total RNA (5 μg) was performed using a superscript 111 first-strand synthesis system. Quantitative real-time PCR was performed using fast SYBR Green QPCR. […]
The housekeeping gene beta-actin was used for internal normalization. Fidelity of the PCR reaction was determined by melting temperature analysis. PCR efficiency for each primer pair was determined by quantitating amplification with increasing concentration of template cDNA. […] RNA expression of target genes was calculated based on the real-time PCR efficiency E and the threshold crossing point (CP) and is expressed relative to the reference gene beta-actin.

rat aortic rings = assay: Acetylcholine-induced endothelium dependent relaxation of aortic rings in organ chamber; assay type: in vivo; details: GK diabetic rats
Experimental: In the experiments, with regard to the determination of endothelium dependent relaxation (EDR) in the aorta, EDR in response to various concentrations of acetylcholine (Ach) (10^−9 to 10^−6 mol/l) was assessed in norepinephrine (10^−7 mol/l) preconstructed rat aortic rings using an organ chamber bath. The effects of the NAD(P)H oxidase inhibitor apocynin (3×10^−4 mol/l) and the O2^− scavenger Tiron (10 mmol/l) on Ach-induced responses of diabetic arteries were also considered.

`O=C(O)CCCCC1CCSS1` (stereo not drawn) [LA, alpha-lipoic acid] was tested, and the NF-κB expression (NF-κB) was “significant increase”, the “protection of cell viability from hydrogen peroxide” value [1] was “protected” and the “nuclear EB fluorescence in aortic vessels” value (aortic vessels) was “significantly reduced”. The “diabetic vascular proinflammatory phenotype, aortic expression of IL-6” value (IL-6) was “partially reversed”, the “TNF-α-induced abnormalities (O2− generation, caspase 3/7, DNA fragmentation, Ach-induced vasorelaxation)” value (cultured arteries) was “partially reversed” and the “rate of gene expression of nox-1 subunit” value (nox-1) was “tended to reduce”. The “decline in acetylcholine (Ach)-induced relaxation of rat aorta” value (rat aortic rings; LA 50 mg/kg i.p. daily for four weeks) was “ameliorated” and the “beneficial effect on Ach-induced relaxation after discontinuation” value (rat aortic rings; two weeks after discontinuation of LA) was “not evident”.
